# Laboratory results taken from patent publication US20140128472A1, “TREATMENT AND PREVENTION OF DISEASES RELATED TO OXIDATIVE STRESS” (UNIVERSITY OF PÉCS, priority 2011, published 2014).
# Entries after “also recorded” stand apart in the source; their conditions may differ.
# Experiments:
# [1] = test system: Akt (protein kinase B); assay: Insulin-induced phosphorylation of Akt in 3T3-L1 adipocytes (Western blot); type: cell-based, mouse
# Procedure: Primary cultures of mouse embryo fibroblasts (3T3-L1) were purchased from ATCC (Manassas, US). Early passages of 3T3-L1 fibroblasts were cultured in Dulbecco's modified Eagle medium ((DMEM, Invitrogen, CAT number: 41966-029; Sigma Aldrich CAT number: D6046) supplemented with 10% Fetal Bovine Serum (Gibco, CAT number: 16170-078), 100 U/ml penicillin and 0.1 mg/ml streptomycin (Gibco, CAT number: 15070-063) and 398 nM p-, m-, or o-Tyr. DMEM contained 25 or 5 mM glucose (depending on the experiment), L-glutamine, and pyruvate. Cells were grown in a humidified incubator at 37° C. and 5% CO2. Differentiation medium consisted of DMEM supplemented with 10% Fetal Bovine Serum (FBS, Gibco, Csertex, Budapest, Hungary, CAT number: 10106-169) (FBS), to which a cocktail was added containing […] isobuthylmethylxanthine (Sigma Aldrich, CAT number: I 5879), 0.17 nM insulin (Sigma Aldrich, CAT number: I 9278) and 250 nM dexamethasone (Sigma Aldrich, CAT number: 861871). From Day 4 onward, cells were maintained in DMEM/10% FBS containing […] insulin with a media change every other day until experimental treatments were initiated. For all treatments, cells were incubated overnight in serum-deprived medium after 90% of the cell population reached the adipocyte phenotype.
# Following the treatment cells were washed twice with Saline (4° C.) to remove any trace of the medium, then exposed to 80 μL lysis buffer/plate, containing 1.15% Triton X, 1M Trisbase, pH 7.4, 0.5 M EDTA, pH 8, 0.2 M EGTA, pH 7, 0.1 M dithiothreitol (DTT), 5 mg/ml phenylmethylsulfonyl fluoride (PMSF), 0.1 M Na3VO4, 5 mg/ml leupeptin, 5 mg/ml aprotinin, Phoshatase Inhibitor Coctail 1 and 2 (Sigma Aldrich, CAT number: P2850 and P5726). Adypocytes were scraped off mechanically and then frozen at −70° C.
# The samples of EC lysates were sonicated (2 min) and centrifuged (10 min, 13,000 rpm, at 4° C.). Protein content of samples was determined by the Bradford method using bovine serum albumin as a standard Bio-Rad Benchmark Plus. Samples were solubilized in a buffer of 100 mM Tris-HCl (pH 6.8), 4.0% sodium dodecyl sulphate (SDS), 20% glycerol, 200 mM DTT, and 0.2% bromophenol blue. […]
# Membranes were incubated overnight with the immunoglobulin G (IgG) monoclonal antibodies diluted to 1:1000 in TBS-T (0.1%), containing 5% bovine serum (BS). […] Blots were detected using enhanced chemiluminescence (ECL; Pierce Biotech, Bio-Rad, Budapest, Hungary). Computerized densitometry (integrated optical density) of the specific bands was analyzed with Scion Image for Windows Software. […]
# [2] = test system: thoracic and abdominal aorta, renal and femoral arteries; assay: Insulin-induced relaxation of isolated arterial segments after oral tyrosine isomer supplementation of rats; type: in vivo, Sprague-Dawley rats; details: for Insulin-induced relaxation, abdominal aorta, femoral (and renal) arteries / Insulin-induced relaxation, thoracic aorta: 1.76 mg/die per os; for Insulin-induced relaxation, abdominal aorta, femoral (and renal) arteries: compared to control; for Insulin-induced relaxation, thoracic aorta: compared to control/other groups; for Chronic effects on insulin-induced vasorelaxation after washout: 8th week, 4 weeks washout, all segments
# Procedure: The experiments were carried out with the permission of the Hungarian Local Animal Experiment Committee. Shortly after weaning male CFY rats (a strain of the Sprague-Dawley rat) were placed in individual cages and held on regular diet. After two hours of fasting animals (4-5 week-old, 80-140 g) were loaded with 1.76 mg/die para-, meta- or ortho-tyrosine (p-, m-, o-tyr; Sigma-Aldrich, Inc., St. Louis, Mo. 63178, USA) dissolved in saline or vehicle (saline only) by gavage (per os) six days of the week. After one month treatment, animals were either anaesthetized with ether and were decapitated with a guillotine or p-, m-, o-tyr and vehicle supplementation was discontinued (“washout” period) and they were sacrificed […] (FIG. 8.A). The descending thoracic and abdominal aorta, renal and femoral arteries were removed and cleaned from connective tissue (FIG. 19). Sections were immediately hydrolyzed for HPLC analysis or were used for vascular reactivity studies.
# In further tyrosine isomer incorporation studies when effects of chronic oral p-Tyr and o-Tyr supplementation of rats on the o-Tyr level and insulin-induced relaxation of isolated arterial segments were studied, 18 Male Sprague-Dawley rats (5-6 week-old) were used. Rats were orally supplied with either 1.76 mg/die of p-Tyr or o-Tyr or vehicle during six days per week for four weeks. […] At the end of four-week treatment, HPLC and vasomotor studies were performed. In another group of rats, p-Tyr/o-Tyr supplementation was discontinued for four weeks (“washout” period), after which they were sacrificed for HPLC and vasomotor studies.
# The modified method of Fésüs et al. (Fésüs2007) was used. The distal parts of the vessels were dissected into 2 mm long segments in ice-cold Krebs buffer and rings were mounted on two stainless steel wires (40 μm in diameter) in a Danish Multimyograph Model 610M (DMT-USA Inc., Atlanta, Ga., USA). Vessels were bathed in Krebs buffer (containing 119 mM NaCl, 4.7 mM KCl, 1.2 mM KH2PO4, 25 mM NaHCO3, 1.2 mM Mg2SO4, 11.1 mM glucose, 1.6 mM CaCl2*2H2O, pH 7.4) and gassed with 5% CO2 and 95% O2 at 37° C. The resting tension/internal circumference relationship for each vessel was determined and then the internal circumference was set to 0.9×L100, where L100 is the internal circumference the vessel would have had in vivo when relaxed under a transmural pressure of 100 mmHg After this normalization procedure vessels were allowed to stabilize for 30 min, and then isometric tension was continuously recorded. Rings were preconstricted with 100 nM epinephrine. After reaching a stabile contraction plateau, relaxant responses to increasing doses of insulin were assessed. The rate of relaxation was expressed as percentage of the contraction evoked by epinephrine (100%). Para-, meta-, ortho-tyrosine or vehicle were added to the vessel chamber 10 minutes before the addition of epinephrine and 30 minutes before the addition of insulin.
compound,measurement,setting,value
"N[C@@H](Cc1ccccc1O)C(=O)O [o-Tyr, Ortho-L-tyrosine]",Insulin-induced Akt phosphorylation,"[1]; cells grown on m-Tyr or o-Tyr, insulin 200 and 400 nmol/l",inhibited the insulin-induced Akt-phosphorylation; also recorded: could not be significantly enhanced by insulin
same,"Insulin-induced relaxation, abdominal aorta, femoral (and renal) arteries",[2]; 4th week,significantly diminished response to insulin
same,"Insulin-induced relaxation, thoracic aorta",[2]; 4th week,no significant difference; also recorded: did not observe any significant further decline of response to insulin
same,"Insulin-induced relaxation, all three isolated segments compared to the p-Tyr-treated group","[2]; 4th week, thoracic and abdominal aorta, femoral artery",markedly attenuated insulin-induced relaxations
same,Chronic effects on insulin-induced vasorelaxation after washout,[2],completely abolished
"N[C@@H](Cc1ccc(O)cc1)C(=O)O [p-Tyr, Para-L-tyrosine]",Insulin-induced Akt phosphorylation,[1]; cells grown on high glucose media with p-Tyr only,significantly lower Akt-phosphorylation
same,Increase in Akt (protein kinase B) phosphorylation by insulin compared to controls,"[1]; cells grown on p-Tyr and low glucose, increasing doses of insulin",3 fold
same,"Insulin-induced relaxation, abdominal aorta, femoral (and renal) arteries",[2]; 4th week,could not detect significant difference
same,"Insulin-induced relaxation, thoracic aorta",[2]; 4th week,increased insulin-induced relaxations only in the thoracic aorta; also recorded: increased relaxation in response to insulin; also recorded: higher vasorelaxation response to insulin; also recorded: greater vasorelaxation
same,Chronic effects on insulin-induced vasorelaxation after washout,[2],completely abolished
